Laboratory results published in the supplement of paper PMC10307832.

What was measured:
Assay in all cases: relative viability (nuclei count vs DMSO), 5 days (fraction); higher = more cells survive
Tipifarnib + Navitoclax = compound: Cn1cncc1[C@@](N)(c1ccc(Cl)cc1)c1ccc2c(c1)c(-c1cccc(Cl)c1)cc(=O)n2C [Tipifarnib] + CC1(C)CCC(c2ccc(Cl)cc2)=C(CN2CCN(c3ccc(C(=O)NS(=O)(=O)c4ccc(N[C@H](CCN5CCOCC5)CSc5ccccc5)c(S(=O)(=O)C(F)(F)F)c4)cc3)CC2)C1 [Navitoclax] (partner 0.5 µM)
Procedure, shortened: (§1)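 Medians of duplicate plates are given as relative viability. That measure is the nuclei count in treated wells divided by the count in vehicle wells. Counts were taken on 4× images of lung cancer cell lines in 1536-well plates, 5 days after pin-tool dosing the day after seeding with one drug alone or a fixed anchor-drug dose plus five library-drug doses (not always all listed) in √10 steps.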

Tipifarnib + Luminespib = compound: Cn1cncc1[C@@](N)(c1ccc(Cl)cc1)c1ccc2c(c1)c(-c1cccc(Cl)c1)cc(=O)n2C [Tipifarnib] + CCNC(=O)c1noc(-c2cc(C(C)C)c(O)cc2O)c1-c1ccc(CN2CCOCC2)cc1 [Luminespib] (partner 0.01 µM)
Procedure, shortened: as §1

Tipifarnib + Foretinib = compound: Cn1cncc1[C@@](N)(c1ccc(Cl)cc1)c1ccc2c(c1)c(-c1cccc(Cl)c1)cc(=O)n2C [Tipifarnib] + COc1cc2c(Oc3ccc(NC(=O)C4(C(=O)Nc5ccc(F)cc5)CC4)cc3F)ccnc2cc1OCCCN1CCOCC1 [Foretinib] (partner 0.25 µM)
Procedure, shortened: as §1

Tipifarnib + Linsitinib = compound: Cn1cncc1[C@@](N)(c1ccc(Cl)cc1)c1ccc2c(c1)c(-c1cccc(Cl)c1)cc(=O)n2C [Tipifarnib] + C[C@]1(O)C[C@@H](c2nc(-c3ccc4ccc(-c5ccccc5)nc4c3)c3c(N)nccn32)C1 [Linsitinib] (partner 1 µM)
Procedure, shortened: as §1

Cell Line | relative viability (Tipifarnib + Navitoclax; first compound 0.01 µM) | relative viability (Tipifarnib + Navitoclax; first compound 0.03162 µM) | relative viability (Tipifarnib + Navitoclax; first compound 0.1 µM) | relative viability (Tipifarnib + Navitoclax; first compound 0.3162 µM) | relative viability (Tipifarnib + Navitoclax; first compound 1 µM) | relative viability (Tipifarnib + Luminespib; first compound 0.01 µM) | relative viability (Tipifarnib + Luminespib; first compound 0.03162 µM) | relative viability (Tipifarnib + Luminespib; first compound 0.1 µM) | relative viability (Tipifarnib + Luminespib; first compound 0.3162 µM) | relative viability (Tipifarnib + Luminespib; first compound 1 µM) | relative viability (Tipifarnib + Foretinib; first compound 0.01 µM) | relative viability (Tipifarnib + Foretinib; first compound 0.03162 µM) | relative viability (Tipifarnib + Foretinib; first compound 0.1 µM) | relative viability (Tipifarnib + Foretinib; first compound 0.3162 µM) | relative viability (Tipifarnib + Foretinib; first compound 1 µM) | relative viability (Tipifarnib + Linsitinib; first compound 0.01 µM) | relative viability (Tipifarnib + Linsitinib; first compound 0.03162 µM) | relative viability (Tipifarnib + Linsitinib; first compound 0.1 µM) | relative viability (Tipifarnib + Linsitinib; first compound 0.3162 µM) | relative viability (Tipifarnib + Linsitinib; first compound 1 µM)
LOU-NH91 | 0.682 | 0.633 | 0.663 | 0.483 | 0.398 | 0.321 | 0.336 | 0.323 | 0.322 | 0.323 | 0.943 | 1 | 0.83 | 0.695 | 0.693 | 0.937 | 0.819 | 0.838 | 0.736 | 0.691
LU99A | 0.668 | 0.618 | 0.488 | 0.455 | 0.356 | 0.343 | 0.22 | 0.241 | 0.207 | 0.233 | 0.757 | 0.651 | 0.653 | 0.497 | 0.395 | 0.563 | 0.477 | 0.299 | 0.257 | 0.272
LXF-289 | 0.936 | 0.959 | 0.87 | 0.829 | 0.856 | 0.651 | 0.68 | 0.701 | 0.554 | 0.444 | 0.998 | 0.966 | 0.858 | 0.825 | 0.824 | 0.989 | 0.951 | 0.865 | 0.876 | 0.897
NCI-H23 | 1.11 | 0.883 | 0.657 | 0.562 | 0.406 | 0.243 | 0.242 | 0.223 | 0.199 | 0.24 | 1.04 | 0.873 | 0.759 | 0.688 | 0.511 | 0.747 | 0.573 | 0.44 | 0.331 | 0.39
NCI-H322M | 1.18 | 1.2 | 1.31 | 0.971 | 1.19 | 0.854 | 0.85 | 0.676 | 0.665 | 0.554 | 0.964 | 1.15 | 0.849 | 0.876 | 0.783 | 0.934 | 0.921 | 0.96 | 0.672 | 0.853
NCI-H441 | 0.498 | 0.255 | 0.481 | 0.294 | 0.253 | 0.39 | 0.355 | 0.242 | 0.315 | 0.267 | 0.955 | 0.699 | 0.73 | 0.72 | 0.594 | 0.67 | 0.455 | 0.413 | 0.402 | 0.33
NCI-H460 | 1.13 | 0.905 | 0.531 | 0.252 | 0.0922 | 0.0293 | 0.0319 | 0.0244 | 0.0236 | 0.0186 | 1 | 0.872 | 0.624 | 0.581 | 0.207 | 0.841 | 0.639 | 0.173 | 0.146 | 0.0526
